Where two headings read alike, the source gives them in different places.

What is called Ki is the equilibrium dissociation constant of an inhibitor or competing ligand from its target.

Data set [1] addresses T1, sc-urokinase (uPA) (Homo sapiens, UniProt P00749).
T1 construct: purchased Ribosepharm GmbH, Haan, Germany
Kind of data set: In-vitro inhibition of urokinase, chromogenic substrate, Dixon Ki. It is filed as biochemical. As for the experimental part:
(§1) The uPA inhibitor activity was determined by incubating 200 μl of Tris buffer (0.05 mol/l, containing the inhibitor, 0.154 mol/l NaCl, 5% ethanol, pH 8.0), 25 μl of substrate (Pefachrome UK or BZ-β-Ala-Gly-Arg-pNA in H2O; Pentapharm Ltd, Basle, Switzerland) and 50 μl of sc-urokinase (Ribosepharm GmbH, Haan, Germany) or another corresponding protease at 25° C. After 3 min, the reaction was interrupted by adding 25 μl of acetic acid (50%) and absorbance at 405 nm was determined by means of a microplate reader (MR 5000, Dynatech, Denkendorf, Germany). The Ki values were determined by linear regression according to Dixon by means of a computer program. The Ki values are the average of at least three determinations, and the standard deviation was below 25%.

The target in data set [2] is T2, Trypsin (UniProt P00760).
T2 sequence (P00760 1-246): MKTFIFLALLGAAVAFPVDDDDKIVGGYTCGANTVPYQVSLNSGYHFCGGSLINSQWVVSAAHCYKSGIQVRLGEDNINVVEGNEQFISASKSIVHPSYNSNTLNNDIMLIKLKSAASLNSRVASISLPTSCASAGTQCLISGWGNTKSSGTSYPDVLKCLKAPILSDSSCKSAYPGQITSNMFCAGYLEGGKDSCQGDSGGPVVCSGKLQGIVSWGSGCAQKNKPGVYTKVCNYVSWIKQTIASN
Kind of data set: In-vitro protease inhibition, chromogenic substrate, Dixon Ki. It is filed as biochemical. The protocol:
The Ki values were determined by linear regression according to Dixon by means of a computer program.

In data set [3] the target is Plasmin (Homo sapiens, UniProt P00747). The data set is described as above. It is filed as biochemical. As to conditions: 25° C., pH 8.0. As for the experimental part: as §1
The target of data set [4] is Thrombin (Homo sapiens, UniProt P00734). The data set is described as above. It is filed as biochemical. The protocol:
as §1

The target of data set [5] is F Xa (Homo sapiens, UniProt P00742). The description is as above. It is filed as biochemical. As for the experimental part:
as §1

The subject of data set [6] is DU145 tumors (a prostate adenocarcinoma cell line). As to conditions: oral, daily dose of 125 to 250 mg/kg/day; cited from earlier work.
In data set [7] the test system is mouse breast cancer. As to conditions: cited from earlier work.
The subject of data set [8] is rat prostate cancer. As to conditions: syngeneic rat prostate cancer; cited from earlier work.
The test system of data set [9] is rat breast adenocarcinoma cells. As to conditions: after i.v. inoculation of tumor cells; cited from earlier work.
[10] abbreviates: 25° C., pH 8.0, average of at least three determinations, read-out: Ki uPA.
The mark [11] stands for this setting: 25° C., pH 8.0; read-out: Ki Trypsin.
[12] abbreviates: 25° C., pH 8.0, read-out: Ki Thrombin.
The mark [13] stands for this setting: 25° C., pH 8.0, read-out: Ki F Xa.
Setting [14] is: Ki uPA, 25° C., pH 8.0, average of at least three determinations.
Where [15] appears, read: read-out: Ki Trypsin; 25° C., pH 8.0.

Chain of Plasmin (P00747 581-810 limits assumed, species assumed): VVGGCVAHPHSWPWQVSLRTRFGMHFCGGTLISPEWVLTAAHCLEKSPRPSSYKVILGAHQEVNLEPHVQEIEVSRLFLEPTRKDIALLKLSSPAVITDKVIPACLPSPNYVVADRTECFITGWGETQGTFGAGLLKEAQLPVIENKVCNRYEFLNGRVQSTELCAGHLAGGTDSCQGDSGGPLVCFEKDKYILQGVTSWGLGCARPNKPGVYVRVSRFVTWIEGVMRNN
Chain of Plasmin (P00747 97-580 partner limits assumed, species assumed): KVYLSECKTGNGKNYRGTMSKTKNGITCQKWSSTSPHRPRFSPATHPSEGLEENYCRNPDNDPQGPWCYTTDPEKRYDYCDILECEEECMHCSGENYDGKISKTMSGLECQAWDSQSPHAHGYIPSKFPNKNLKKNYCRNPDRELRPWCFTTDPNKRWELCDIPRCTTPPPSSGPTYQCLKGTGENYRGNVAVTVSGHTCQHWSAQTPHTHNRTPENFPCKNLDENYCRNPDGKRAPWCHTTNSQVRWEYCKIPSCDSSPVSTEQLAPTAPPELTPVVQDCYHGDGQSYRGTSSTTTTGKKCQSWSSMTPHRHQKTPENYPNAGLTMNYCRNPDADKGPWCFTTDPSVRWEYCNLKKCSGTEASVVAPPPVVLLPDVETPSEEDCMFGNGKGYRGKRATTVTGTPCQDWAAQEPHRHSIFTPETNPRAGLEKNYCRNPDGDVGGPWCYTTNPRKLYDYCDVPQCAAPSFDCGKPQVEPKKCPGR
Chain of F Xa (P00742 235-488 limits assumed): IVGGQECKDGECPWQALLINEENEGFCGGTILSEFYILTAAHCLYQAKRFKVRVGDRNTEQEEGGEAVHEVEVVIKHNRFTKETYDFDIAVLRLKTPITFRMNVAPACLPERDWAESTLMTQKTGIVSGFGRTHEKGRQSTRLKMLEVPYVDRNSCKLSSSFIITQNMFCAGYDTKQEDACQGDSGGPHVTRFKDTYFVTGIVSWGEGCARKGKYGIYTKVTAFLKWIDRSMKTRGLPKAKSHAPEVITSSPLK
Chain of F Xa (P00742 41-179 partner limits assumed): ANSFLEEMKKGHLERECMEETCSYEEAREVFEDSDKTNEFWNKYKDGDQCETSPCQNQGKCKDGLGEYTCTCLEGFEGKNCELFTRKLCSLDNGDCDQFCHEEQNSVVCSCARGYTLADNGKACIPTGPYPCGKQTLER

In the case of `CC(C)OC(=O)NCc1ccc(NC(=N)N)cc1` [ST 273], the Ki in data set [1] (setting [10]) is 52 µM; in data set [2] (setting [11]) it was over 1000 µM; in [3] it was 0.13 mM; in data set [4] (setting [12]), over 1 mM; in data set [5] (setting [13]), over 1 mM.
On to `N=C(N)c1ccc(N)cc1` [p-Aminobenzamidine], for which, in data set [6], the “growth rate of DU145 tumors” value is reported as “distinct decrease in the growth rate” and the side effects result is “negligible”.
In the case of `COc1cc(COC(=O)NCc2ccc(NC(=N)N)cc2)c([N+](=O)[O-])cc1OC` [ST 313], the results for the Ki in [1] (setting [10]), in data set [4] (setting [12]) and in [5] (setting [13]) were 35 µM, over 1 mM and over 1 mM, respectively.
Turning to `N=C(N)Nc1ccc(CNC(=O)NC23C[C@H]4C[C@@H](C2)C[C@@H](C3)C4)cc1` [ST 293], the “uPA inhibition, result in words” value in data set [1] is “particularly effective and selective inhibitors”. The Ki in [1] (setting [10]) was 2.4 µM; in data set [1] (read-out: Ki value for uPA), over 1000 µM; in [2] (setting [11]) it was 46 µM; in [3], over 1 mM; in data set [4] (setting [12]), 0.6 mM; in data set [5] (setting [13]) it was over 1 mM.
With `CC(=O)Nc1ccc(S(=O)(=O)NCC(=O)NCc2ccc(NC(=N)N)cc2)cc1` [ST 296], the Ki was 22 µM in [1] (setting [10]); 42 µM in data set [2] (setting [11]); over 1 mM in data set [3]; over 1 mM in data set [4] (setting [12]); over 1 mM in data set [5] (setting [13]).
With `N=C(N)Nc1ccc(CNC(=O)OC23C[C@H]4C[C@@H](C2)C[C@@H](C3)C4)cc1` [ST 274], the inhibition constant (Ki) is 23 µM in data set [1] (setting [10]); over 1000 µM in [2] (setting [11]); over 1 mM in [3]; over 1 mM in data set [4] (setting [12]); over 1 mM in data set [5] (setting [13]).
Turning to `CC(=O)Nc1ncc(S(=O)(=O)NCc2ccc(NC(=N)N)cc2)s1` [ST 282], the Ki in [1] (setting [10]) was 240 µM; in [2] (setting [11]) it was over 1000 µM; in data set [3], over 1 mM; in [4] (setting [12]) it was over 1 mM; in [5] (setting [13]), over 1 mM.
As for `N=C(N)Nc1ccc(CNC(=O)Nc2ccccc2)cc1` [ST 301], the inhibition constant Ki in data set [1] (setting [10]) was 29 µM; in [2] (setting [11]), over 1000 µM; in data set [3], 0.17 mM; in [4] (setting [12]) it was over 1 mM; in [5] (setting [13]), 0.33 mM.
For `N=C(N)Nc1ccc(CNC(=O)Oc2ccc(/N=N/c3ccccc3)cc2)cc1` [ST 315], the Ki in [1] (setting [14]) was 11 µM; in data set [1] (Ki value for uPA), over 1000 µM; in [2] (setting [15]), 200 µM; in data set [4] it was over 1 mM; in data set [5] it was over 1 mM.
On to `N=C(N)Nc1ccc(CN)cc1` [ST 275], for which the Ki in [1] (setting [10]) was over 1000 µM; in [2] (setting [11]), over 1000 µM; in data set [3], over 1 mM; in data set [4] (setting [12]) it was over 1 mM; in [5] (setting [13]) it was over 1 mM.
Take `CCOC(=O)NCc1ccc(NC(=N)N)cc1` [ST 269]: the Ki was 27 µM in [1] (setting [10]); over 1000 µM in data set [2] (setting [11]); over 1 mM in data set [3]; over 1 mM in data set [4] (setting [12]); over 1 mM in [5] (setting [13]).
For `N=C(N)c1cc2c(I)cccc2s1` [B428, 4-iodobenzo[b]thiophene-2-carboxamidine], the primary tumor growth entry in data set [7] (administered together with the antiestrogen tamoxifen) is “further decrease in primary tumor growth”. Moreover, the “tumor growth and metastases formation” value in [7] (syngeneic mouse breast cancer) was “decrease of tumor growth and metastases formation”; in [8] it was “decrease of tumor growth and metastases formation”.
For `N=C(N)Nc1ccc(CNC(=O)OCc2ccc([N+](=O)[O-])cc2)cc1` [ST 311], the Ki in data set [1] (setting [10]) was 12 µM; in data set [2] (setting [11]), 200 µM; in data set [4] (setting [12]), over 1 mM; in [5] (setting [13]) it was over 1 mM.
With `CC(C)c1cc(C(C)C)c(S(=O)(=O)NCC(=O)NCc2ccc(NC(=N)N)cc2)c(C(C)C)c1` [ST 298], the Ki was 42 µM in [1] (setting [10]); 37 µM in [2] (setting [11]); over 1 mM in data set [3]; over 1 mM in data set [4] (setting [12]); over 1 mM in [5] (setting [13]).
In the case of `CC(C)(C)OC(=O)NCC(=O)NCc1ccc(NC(=N)N)cc1` [ST 294], the Ki was 37 µM in data set [1] (setting [10]); over 1000 µM in data set [2] (setting [11]); over 1 mM in data set [3]; over 1 mM in [4] (setting [12]); over 1 mM in data set [5] (setting [13]).
With `CC(C)(c1ccc(OC(=O)NCc2ccc(NC(=N)N)cc2)cc1)c1ccc(OC(=O)NCc2ccc(NC(=N)N)cc2)cc1` [ST 312], in [1], the “uPA inhibition, result in words” value is “particularly effective and selective inhibitors”. Moreover, the Ki in data set [1] (setting [14]) was 2.8 µM; in data set [1] (Ki value for uPA) it was over 1000 µM; in data set [2] (setting [15]), 100 µM; in data set [4], over 1 mM; in [5], over 1 mM.
Regarding `N=C(N)NC(=O)c1nc(Cl)c(N)nc1N` [amiloride], the “formation of lung metastases” value in [9] was “prevents the formation of lung metastases”.
Consider `CC(C)(C)OC(=O)NCc1ccc(NC(=N)N)cc1` [ST 242], for which the Ki is 36 µM in data set [1] (setting [10]); over 1000 µM in [2] (setting [11]); over 1 mM in data set [3]; over 1 mM in data set [4] (setting [12]); over 1 mM in data set [5] (setting [13]).
On to `N=C(N)Nc1ccc(N)cc1` [ST 267], for which the Ki in data set [1] (setting [10]) is over 1000 µM; in [2] (setting [11]), over 1000 µM; in data set [3] it was over 1 mM; in [4] (setting [12]), over 1 mM; in [5] (setting [13]), over 1 mM.
For `CC(C)(C)COC(=O)NCc1ccc(NC(=N)N)cc1` [ST 271], the Ki in [1] (setting [10]) was 51 µM; in [2] (setting [11]) it was over 1000 µM; in data set [3] it was over 1 mM; in data set [4] (setting [12]), over 1 mM; in data set [5] (setting [13]) it was over 1 mM.

The record behind these values is patent US7208521B2, “Selective inhibitors of the urokinase plasminogen activator” (Wilex AG, priority 1999, dated 2007).
